Reference: article PMC9404711 (Antibiotics, 2022)
Read-outs that look alike come from different tables or passages of the source. Non-standard residues stand in square brackets, D forms with d. Residues, ends and D or L forms follow the SMILES beside them.

Tests used:
[1] = system: P. aeruginosa (ATCC 27853); type: cell-based, Pseudomonas aeruginosa; conditions: P. aeruginosa ATCC 27853, MHB-II, 37 °C, 18–24 h, triplicate
Protocol: (§1) The following bacteria were grown in cation-adjusted Muller-Hinton broth at 37 °C with shaking: A. baumannii (ATCC 19606), E. coli (ATCC 25922), K. pneumoniae (ATCC 13883), P. aeruginosa (ATCC 27853), and S. aureus (ATCC 29213).
(§2) The MIC experiments were performed in triplicate, as described in Jensen et al.. Briefly, all peptide stock solutions were prepared by dissolving each peptide in Milli-Q water to obtain a concentration of 10 mg/mL. A bacterial concentration of 10^6 CFU/mL was obtained through the dilution of an overnight culture (MHB-II medium). When the overnight culture was prepared, the OD was measured using a spectrophotometer and when an OD value between 0.2 and 0.4 was obtained, the culture was diluted to OD = 0.002. The MIC determination was carried out in 96-well polypropylene microtitre plates. […] A final bacterial inoculum of 5 × 10^5 CFU/mL per well was obtained by adding 50 μL bacterial suspension to the microtiter plates. The plates were incubated at 37 °C for 18–24 h. To verify the CFU, 10 μL of bacteria suspension was transferred to 990 μL 0.9 % saline solution, from which a 10-fold dilution was carried out. Then, 100 μL of the dilution was plated on an LB plate and left for bacterial growth overnight at 37 °C. Colistin and vancomycin were used as the positive controls.

E. coli (ATCC 25922) = type: cell-based, Escherichia coli; conditions: E. coli ATCC 25922, MHB-II, 37 °C, 18–24 h, triplicate
Protocol: as §1, §2

[2] = system: colistin-susceptible strain A. baumannii ATCC 19606; conditions: at 4 × MIC and above; cited from earlier work
S. aureus (ATCC 29213) = assay: MIC determination, broth microdilution; type: cell-based, Staphylococcus aureus; conditions: S. aureus ATCC 29213, MHB-II, 37 °C, 18–24 h, triplicate
Protocol: as §1, §2

[3] = system: K. pneumoniae (ATCC 13883); type: cell-based, Klebsiella pneumoniae; conditions: K. pneumoniae ATCC 13883, MHB-II, 37 °C, 18–24 h, triplicate
Protocol: as §1, §2

[4] = Hydrophobicity by analytical RP-HPLC (%B at elution); type: physicochemical; conditions: chromatographic, analytical reversed-phase HPLC, Waters Symmetry C18 5 μm 4.6 × 250 mm; A: H2O + 0.1% TFA, B: 90:10 ACN-H2O + 0.1% TFA
Protocol: Peptide purity was determined as described previously by analytical RP-HPLC using a Waters 717 plus Autosampler, In-line Degasser AF, 600 Controller, and 2996 Photodiode Array Detector; the column used was a Waters Symmetry C18 column (5 μm, 4.6 mm × 250 mm, Milford, MA, USA). An aqueous acetonitrile (ACN) gradient with 0.1% TFA added (mixing eluent A: H2O + 0.1% TFA and eluent B: 90:10 ACN-H2O + 0.1% TFA) was employed using milli-Q water. Preparative RP-HPLC was performed by using a Waters XSelect Peptide CSH C18 OBDTM column (5 μm, 19 mm × 250 mm, Milford, MA, USA) with the same eluents as for analytical HPLC.
*Hydrophobicity as indicated by the percentage of mobile phase B (%B) at the peak elution time on analytical

[5] = system: A. baumannii (ATCC 19606); type: cell-based, Acinetobacter baumannii; conditions: A. baumannii ATCC 19606, MHB-II, 37 °C, 18–24 h, triplicate
Protocol: as §1, §2

E. coli = assay: Time-kill assay; type: cell-based, Escherichia coli; conditions: start 5 × 10^5 CFU/mL, MHB-II 37 °C, n = 3
Protocol: The limit of detection was set to 10 CFU/mL, corresponding to a single viable colony after the overnight incubation of 100 μL bacteria suspension on an agar plate.
An overnight culture (MHB-II media) of E. coli was diluted 1:100 in preheated MHB-II, placed in a water bath (37 °C), and allowed to grow until OD600 = 0.2–0.4 was reached. The bacterial suspension was then diluted 1:10 in 25 mL preheated MHB-II, placed in a water bath (37 °C), and then allowed to grow until an OD = 0.2 was reached. […] At time points 0, 1, 3, 5, and 24 h, 250 μL of each sample suspension were transferred to a 0.9 % saline solution in a 1-mL Eppendorf tube. The bacterial cells were washed twice in 0.9% saline, spun down (10,000× g for 5 min) and resuspended in 250 μL 0.9% saline. Then, 10-fold dilution series were prepared and aliquots of 10 μL were spotted onto LB Agar. In addition, 100 μL of undiluted bacterial suspension (except the control sample) was plated out on a separate LB plate. All of the plates were incubated (37 °C) overnight and the results were read after incubation.

human erythrocytes = conditions: 150 μM peptide; 0.5% (v/v) red blood cell suspension in PBS, 1 h at 37 °C, absorbance 414 nm; melittin positive control, PBS negative control; three wells
Protocol: PBS served as the negative control and 5 μM melittin served as the positive control. All melittin solutions were prepared in Protein LoBind Eppendorf tubes to prevent the adsorption of melittin to the inner surface of the tubes.
Preparation of peptide solutions and melittin: A 5 μM melittin solution in PBS was prepared the day before the hemolysis experiment. First, 150 μL of this solution was transferred to each of the positive control wells and stored in the fume hood to coat the wells. On the day of the experiment, the melittin solution was discarded and the wells were washed with 3 × PBS. A 2.5 μM melittin solution in PBS was prepared and 75 μL was transferred to the wells. PBS (150 μL) was used as the negative control. A solution of each peptide was prepared by dissolving the peptide in 0.5 mL PBS to obtain a concentration of 300 μM. Each peptide solution (150 μL) was transferred to the wells in three wells each in row A, and the plate was diluted down.
Preparation of the red blood cell suspension: 1 mL of type O- whole blood in citrate was transferred to a cryotube. The whole blood was washed with 3 × PBS; adding 3, 3, and 4 mL of PBS, respectively. In between, the blood was centrifuged for 8 min (3000, 3000, and 4000 rpm, respectively) and the supernatant was removed after each centrifugation. A 0.5% (v/v) blood suspension was prepared by adding 40 μL of the washed blood cells to 8 mL of PBS. Then, 75 μL of the red blood cell suspension was transferred to each well and mixed gently. The plate was sealed and incubated for 1 h at 37 °C. After incubation, the plate was centrifuged at 4000 rpm for 10 min. Afterwards, 60 μL of the supernatant from each well was quickly transferred to an ELISA plate.
The absorbance was determined at 414 nm, and Equation (1) below was used to calculate the hemolytic activity of the peptides.

SMILES | MIC PA ([1]; inoculum 5 × 10^5 CFU/mL) [µg/mL] | MIC PA ([1]; value in brackets) [µM] | MIC EC (E. coli (ATCC 25922); inoculum 5 × 10^5 CFU/mL) [µg/mL] | MIC EC (E. coli (ATCC 25922); value in brackets) [µM] | number of CFU in time-kill [2] | MIC SA (S. aureus (ATCC 29213); inoculum 5 × 10^5 CFU/mL) [µg/mL] | MIC SA (S. aureus (ATCC 29213); value in brackets) [µM] | MIC KP ([3]; inoculum 5 × 10^5 CFU/mL) [µg/mL] | MIC KP ([3]; value in brackets) [µM] | %B (hydrophobicity: percentage of mobile phase B at the peak elution time) [4] [%B] | MIC AB ([5]; inoculum 5 × 10^5 CFU/mL) [µg/mL] | MIC AB ([5]; value in brackets) [µM] | viable cells after 24 h (E. coli; 3 × MIC (12 μg/mL)) | viable cells after 24 h (E. coli; 5 × MIC (20 μg/mL)) | % hemolysis of human erythrocytes (human erythrocytes) [%]
CC[C@@H](C)[C@@H](NC(=O)[C@@H](CCCCN)NC(=O)[C@@H](CCCCN)NC(=O)[C@@H](Cc1ccccc1)NC(=O)[C@@H](CC(C)C)NC(=O)[C@@H](CCCCN)NC(=O)[C@H](N)CCCCN)C(=O)N[C@H](CC(C)C)C(=O)N[C@H](CCCNC(=N)N)C(=O)N[C@H](Cc1ccc(O)cc1)C(=O)N[C@H](CC(C)C)C(N)=O [BP214, reference compound] (H-[dK][dK][dL][dF][dK][dK][dI][dL][dR][dY][dL]-NH2; N-terminus assumed) | 4 | 2.8 | 4 | 2.8 | below the detection level | 8 | 5.5 | 2 | 1.4 | 50.8 | 2 | 1.4 | – | – | –
CCCCCCCCCC(=O)N[C@H](CCCCN)C(=O)N[C@H](CCCCN)C(=O)N[C@H](CC(C)C)C(=O)N[C@H](Cc1ccccc1)C(=O)N[C@H](CCCCN)C(=O)N[C@H](CCCCN)C(=O)N[C@@H](C(=O)N1CCCC[C@H](C(N)=O)NC(=O)[C@@H](Cc2ccc(O)cc2)NC(=O)[C@@H](CCCNC(=N)N)NC(=O)[C@@H](CC(C)C)NC(=O)C1)[C@H](C)CC [compound 13] | 8 | 4.8 | 4 | 2.4 | – | 8 | 4.8 | 16 | 9.6 | 60.9 | 2 | 1.2 | 10^3 CFU/mL | 10^2 CFU/mL | –
CCCCCCCCCCCCCC(=O)N[C@H](CCCCN)C(=O)N[C@H](CCCCN)C(=O)N[C@H](CC(C)C)C(=O)N[C@H](Cc1ccccc1)C(=O)N[C@H](CCCCN)C(=O)N[C@H](CCCCN)C(=O)N[C@@H](C(=O)N1CCCC[C@H](C(N)=O)NC(=O)[C@@H](Cc2ccc(O)cc2)NC(=O)[C@@H](CCCNC(=N)N)NC(=O)[C@@H](CC(C)C)NC(=O)C1)[C@H](C)CC [compound 15] | 8 | 4.6 | 4 | 2.3 | – | 4 | 2.3 | 16 | 9.3 | 78.5 | 4 | 2.3 | – | – | 83
CCCCCCCCCC(=O)N[C@H](CCCCN)C(=O)N[C@H](CCCCN)C(=O)N[C@H](CC(C)C)C(=O)N[C@H](Cc1ccccc1)C(=O)N[C@H](CCCCN)C(=O)N[C@H](CCCCN)C(=O)N1CCCC[C@H](C(N)=O)NC(=O)[C@@H](Cc2ccc(O)cc2)NC(=O)[C@@H](CCCNC(=N)N)NC(=O)[C@@H](CC(C)C)NC(=O)[C@@H]([C@H](C)CC)NC(=O)C1 [compound 16] | 8 | 4.8 | 8 | 4.8 | – | 4 | 2.4 | 16 | 9.7 | 61.3 | 4 | 2.4 | – | – | 59
